{
  "source": "patent US20110104821A1",
  "about": "“ABeta-OLIGOMER MEASUREMENT METHOD” (priority 2008, published 2011)",
  "target": "high molecular oligomer Aβ (Aβ1-42) (Homo sapiens, UniProt P05067)",
  "sequence (P05067 672-713)": "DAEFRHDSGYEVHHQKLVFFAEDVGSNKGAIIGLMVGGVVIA",
  "assay": "Influence of test compound on Aβ oligomer formation, measured by BAN50a / HRP-labeled BAN50a ELISA",
  "assay_type": "biochemical",
  "conditions": "Curcumin with various concentrations added to Aβ42 solutions; incubated at 4° C. for a whole day and night; ELISA of Example 1",
  "procedure": "ELISA using BAN50a and HRP labeled BAN50a (quantification of oligomer Aβ) was performed by the following steps.\n(1) BAN50a antibody was dissolved in coating buffer A to a concentration of 10 μg/ml (75 μl/well), added to an EIA96 well plate (high maximum binding clear plate, Greiner), and incubated in a refrigerating room (about 4° C.) for a whole day and night. (2) After washing 3 times with PBS (calcium, magnesium-free; hereinafter sometimes to be abbreviated as PBS(−)), blocking buffer B was added to 100 μL/well and the plate was stored. (3) On the day of experiment, blocking buffer B was discarded and the plate was washed twice with PBS(−), and 25 μl of buffer C was added. […] (5) The sample was incubated in a refrigerating room (about 4° C.) for a whole day and night. (6) The plate was washed 4 times with PBS(−). […] (11) Thereafter, 1 M phosphoric acid solution (75 μl/well) was added to the reacted substrate solution to terminate the reaction, and OD450 was measured by a multi-label counter (PerkinElmer). […]\n(3) The tube was incubated at 4° C. for a whole day and night. (4) The reaction mixture was diluted 100-fold with buffer C (mentioned above), and measured by the aforementioned ELISA. (5) The inhibitory rate was calculated with that of the vehicle group as 100%. […]",
  "data": [
    {"smiles": "COc1cc(/C=C/C(=O)CC(=O)/C=C/c2ccc(O)c(OC)c2)ccc1O", "note": "[curcumin]", "values": [
      {"measurement": "signal of oligomer Aβ (inhibition of formation of high molecular oligomer Aβ)", "value": "specifically decreased"}
    ]}
  ]
}
